In patent publication US9750789B2, “Use of matrix metalloproteinase inhibitors to treat tuberculosis” (priority 2011, dated 2017):
Values after ≈ are worked out from the molar mass of the structure shown. “Also recorded” adds a separate entry of the source.

Tests used:
MMP-1 [1] = experiment: MMP-1 secretion by stimulated primary human monocytes; assay type: cell-based; conditions: Pam3Cys 5 μg/ml, 24 h
MMP-1 [2] = conditions: Rand et al 2009; cited from earlier work
[3] = tested on: primary human bronchial epithelial cells; experiment: Total protein in bronchial epithelial cell culture supernatants (Bradford); conditions: Bradford analysis, data not shown
[4] = tested on: primary human macrophages; experiment: Total protein accumulation in cell culture supernatants (Bradford); conditions: macrophage supernatants, doxycycline groups
bioluminescent Mtb [5] = experiment: microbe, parasite or virus in culture; assay type: cell-based, Mycobacterium tuberculosis
[6] = MacArthur et al 1978; cited from earlier work
bioluminescent Mtb [7] = experiment: MIC determination with bioluminescent Mtb; assay type: cell-based, Mycobacterium tuberculosis

Pam3Cys
MMP-1 secretion (MMP-1 [1]): increased; also recorded: up-regulated MMP-1 equivalently to live Mtb

Nc1ccc(C(=O)O)c(O)c1 [P-amino-salicylic acid]
MMP-1 secretion by Mtb-infected macrophages (MMP-1 [2]): inhibits

C[C@H]1c2cccc(O)c2C(=O)C2=C(O)[C@]3(O)C(=O)C(C(N)=O)=C(O)[C@@H](N(C)C)[C@@H]3[C@@H](O)[C@@H]21 [Doxycycline, doxycycline]
total protein in cell culture supernatants [3]: no different between groups
protein accumulation in the cell culture supernatants [4]: the same in each group
MBC/MIC ratio (bioluminescent Mtb [5]): 16
MBC (bioluminescent Mtb [5]; Mycobacterium tuberculosis, 72 h, luminescence monitored over 3 days, read-out: minimum bactericidal concentration (MBC)): 40 µg/mL (≈ 90 µM)
peak concentration in serum [6]: 3.2 µg/mL
drop in relative light units (bioluminescent Mtb [7]; 2.5 μg/ml doxycycline, at 2 days): 1 log
MIC (bioluminescent Mtb [7]; Mycobacterium tuberculosis, bioluminescent Mtb, confirmed by Resazurin, read-out: minimum inhibitory concentration (MIC)): 2.5 µg/mL (≈ 5.63 µM)
